pIC50: −log10 of the molar value. Read-outs that look alike come from different tables or passages of the source.
Legend:
[1] = Pharmacokinetic evaluation in Balb/c mice; format: in vivo; details: mouse, in vivo, 5 mg/kg
Text: 4. Pharmacokinetic evaluation of compounds in Balb/c mice
Experimental purpose: to understand pharmacokinetic properties of the compounds.
Experimental basis: Technical Guidelines for Nonclinical Pharmacokinetic Studies of Chemical Drugs, 2014.
Experimental protocol: the pharmacokinetic properties of the compounds were investigated via intravenous administration and intragastric administration in Balb/c mice.
The blood drug concentration was quantitatively analyzed by LC-MS/MS, and pharmacokinetic parameters were calculated, such as peak concentration (Cmax), area under the concentration-time curve (AUC(0-t)), half-life (T1/2), clearance (CL), volume of distribution at steady state (Vdss), and bioavailability (F).
The results of pharmacokinetic evaluation are shown in Table 5 below: Table 5 Pharmacokinetic test results of compounds in Balb/c mice

[2] = biological target: T1, NLRP3 inflammasome (Homo sapiens, UniProt Q96P20); experiment: Inhibitory activity of NLRP3 inflammasome in human monocytes (THP-1 cells, LPS + Nigericin, IL-1β ELISA); format: cell-based
T1 construct: host or cells: THP-1 cells
T1 sequence (Q96P20 whole entry): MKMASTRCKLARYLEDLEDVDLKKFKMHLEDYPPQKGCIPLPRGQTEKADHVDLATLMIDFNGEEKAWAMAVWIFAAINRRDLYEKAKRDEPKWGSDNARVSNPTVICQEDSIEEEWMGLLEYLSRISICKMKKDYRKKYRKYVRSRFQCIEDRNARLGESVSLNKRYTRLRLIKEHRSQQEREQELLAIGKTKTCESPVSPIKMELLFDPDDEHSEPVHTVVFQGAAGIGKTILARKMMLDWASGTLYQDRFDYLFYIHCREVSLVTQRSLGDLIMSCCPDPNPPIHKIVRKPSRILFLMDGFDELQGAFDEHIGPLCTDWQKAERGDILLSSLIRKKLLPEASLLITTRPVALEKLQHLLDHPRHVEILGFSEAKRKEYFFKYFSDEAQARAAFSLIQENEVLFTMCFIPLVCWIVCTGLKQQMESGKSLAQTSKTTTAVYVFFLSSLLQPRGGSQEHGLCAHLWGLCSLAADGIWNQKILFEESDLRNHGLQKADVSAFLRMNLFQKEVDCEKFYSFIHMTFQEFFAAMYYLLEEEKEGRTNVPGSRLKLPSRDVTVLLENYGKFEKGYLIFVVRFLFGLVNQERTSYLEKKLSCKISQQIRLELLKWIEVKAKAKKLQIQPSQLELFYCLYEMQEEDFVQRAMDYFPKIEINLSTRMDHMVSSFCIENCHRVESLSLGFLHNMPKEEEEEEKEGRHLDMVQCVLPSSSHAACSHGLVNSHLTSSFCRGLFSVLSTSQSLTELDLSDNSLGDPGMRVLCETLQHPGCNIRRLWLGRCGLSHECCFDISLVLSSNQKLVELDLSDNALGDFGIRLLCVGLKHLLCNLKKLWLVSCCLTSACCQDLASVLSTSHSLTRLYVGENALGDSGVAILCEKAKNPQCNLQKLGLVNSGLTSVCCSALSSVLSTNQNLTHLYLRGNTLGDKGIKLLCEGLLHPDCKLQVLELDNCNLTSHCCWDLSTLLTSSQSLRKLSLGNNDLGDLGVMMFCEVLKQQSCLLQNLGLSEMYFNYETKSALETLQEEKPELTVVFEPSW
Method: 1. Determination of inhibitory activity of NLRP3 inflammasome in human monocytes
Experimental method: THP-1 cells were cultured in RPMI culture medium containing PMA (10 µM), and then inoculated in 48-well plates at a density of 2×10^5 cells/mL, the plates were incubated overnight in a 5% CO2 incubator at 37°C. The next day, the above culture medium was replaced with Opti-MEM culture medium containing 1 µg/mL LPS. After 3 hours, the grown cells were simulated for 40 min with a drug, and then simulated for 40 min with Nigericin (10 µM), and a cell supernatant was harvested for ELISA analysis.
Table 2 Inhibitory activity of NLRP3 inflammasome

[3] = biological target: T2, hERG potassium ion channel (Homo sapiens, UniProt Q12809)
T2 sequence (Q12809 whole entry): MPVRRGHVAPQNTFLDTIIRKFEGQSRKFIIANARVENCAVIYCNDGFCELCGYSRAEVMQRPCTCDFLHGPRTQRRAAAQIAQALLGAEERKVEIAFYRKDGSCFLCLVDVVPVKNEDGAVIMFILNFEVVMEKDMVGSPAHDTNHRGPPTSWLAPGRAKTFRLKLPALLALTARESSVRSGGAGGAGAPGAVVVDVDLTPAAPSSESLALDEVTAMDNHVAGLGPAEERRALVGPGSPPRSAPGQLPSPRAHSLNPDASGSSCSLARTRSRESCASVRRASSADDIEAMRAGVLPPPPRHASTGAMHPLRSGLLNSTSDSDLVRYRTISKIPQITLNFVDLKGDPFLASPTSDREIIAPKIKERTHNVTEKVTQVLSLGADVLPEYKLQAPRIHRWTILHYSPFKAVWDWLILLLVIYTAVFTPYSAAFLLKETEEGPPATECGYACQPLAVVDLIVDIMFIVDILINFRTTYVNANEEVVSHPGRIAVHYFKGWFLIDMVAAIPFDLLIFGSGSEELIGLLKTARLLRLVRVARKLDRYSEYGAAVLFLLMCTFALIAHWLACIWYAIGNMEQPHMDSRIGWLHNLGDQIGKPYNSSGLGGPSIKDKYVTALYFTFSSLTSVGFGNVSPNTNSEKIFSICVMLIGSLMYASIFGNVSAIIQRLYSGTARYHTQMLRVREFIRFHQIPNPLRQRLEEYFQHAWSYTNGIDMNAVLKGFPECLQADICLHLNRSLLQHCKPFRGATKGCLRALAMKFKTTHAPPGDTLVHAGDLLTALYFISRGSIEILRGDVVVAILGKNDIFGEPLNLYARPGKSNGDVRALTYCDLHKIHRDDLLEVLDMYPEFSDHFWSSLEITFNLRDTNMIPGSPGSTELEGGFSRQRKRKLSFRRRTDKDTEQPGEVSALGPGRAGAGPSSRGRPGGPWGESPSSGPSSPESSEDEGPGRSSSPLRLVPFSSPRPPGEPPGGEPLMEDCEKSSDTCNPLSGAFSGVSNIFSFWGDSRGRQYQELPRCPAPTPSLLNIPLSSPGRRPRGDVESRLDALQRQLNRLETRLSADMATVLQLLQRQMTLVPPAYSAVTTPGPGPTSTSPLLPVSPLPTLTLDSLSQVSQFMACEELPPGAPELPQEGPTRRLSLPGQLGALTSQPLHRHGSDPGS
Method: (§1) Inhibition experiment of compounds on hERG potassium ion channel
(§2) Cell culture and treatment: CHO cells stably expressing hERG were cultured in cell culture flasks and incubated in a 5% CO2 incubator at 37°C. When a cell density reached 60%-80%, the cell culture medium was aspirated, washed once with PBS, and then digested with Detachin. After digestion, the grown cells were neutralized in the cell culture medium, and then centrifuged, the supernatant was aspirated, the cell culture medium was added again to resuspend the grown cells, and the cell density was adjusted to 2-5×10^6 cells/mL for later use.
(§3) Compound preparation: the compound stock solution was diluted in 100% DMSO, that is, 10 µL compound stock solution was serially diluted in 20 µL DMSO by 3 folds to obtain six concentrations. Six concentrations of the compound (4 µL for each concentration) were diluted in 396 µL extracellular fluid by 100 folds to obtain six intermediate concentrations. Six intermediate concentrations of the compound (80 µL for each concentration) were diluted in 320 µL extracellular fluid by 5 folds to obtain final concentrations to be tested. […] DMSO in a final test concentration was not more than 0.2%, and DMSO at this concentration had no effect on the hERG potassium channel. The entire dilution process for compound preparation was performed using Bravo instrument.
(§4) Electrophysiological recording process: the processes of single-celled high-impedance sealing and whole-cell mode formation were all automatically completed by Qpatch instrument, under the whole-cell recording mode, the cells were clamped at -80 mV, before 5-second + 40 mV depolarization stimulus, the cells were given 50-millisecond - 50 mV pre-voltage, followed by repolarization to -50 mV for 5 seconds, and then returning to -80 mV. The voltage stimulus was given every 15 seconds, after 2 minutes of recording, extracellular fluid was recorded for 5 min, and then a drug was administrated, started from a lowest test concentration, each test concentration of the compound was given for 2.5 minutes, after all concentrations were given consecutively, a positive control compound Cisapride (3 µM) was given. At least 3 cells were tested for each concentration (n≥3).
(§5) Data processing: data analysis and processing were performed using GraphPad Prism 5.0 and Excel software. IC50 values of the compounds were calculated by fitting with the following equation using GraphPad Prism 5 software: Y = Bottom + (Top−Bottom)/(1+10^(∧)((LogIC50−X)*HillSlope)); [formula] where X is the Log value of the test sample concentration, Y is an inhibition percentage at a corresponding concentration, and Bottom and Top are the minimum and maximum inhibition percentages, respectively.

[4] = biological target: T2, hERG potassium ion channel; experiment: Inhibition of hERG potassium ion channel (CHO cells stably expressing hERG, Qpatch)
Method: as §1, §2, §3, §4, §5

[5] = In vivo brain-to-plasma ratio in mice; details: for Brain / Plasma: male mice, oral 10 mg/kg
Method: Evaluation of in vivo brain-to-plasma ratio of compound
Experimental purpose: to obtain the brain-to-plasma ratio of the compound
Experimental protocol: the brain-to-plasma ratio of the compound was investigated by monitoring the content of the compound in mouse brain and plasma.
Experimental procedure: the compound was weighed, followed by adding a small amount of DMSO and adding a sodium chloride solution for injection, to prepare a 10 mg · mL^-1 compound solution for administration. Male mice were orally administered at 10 mg · kg^-1, and whole plasma and whole brain tissue were sampled at 1 h and 6 h after administration (n=3). […] A centrifuge tube was weighed as M1, the centrifuge tube containing the whole brain tissue was weighed as M2, the centrifuge tube containing water for homogenization was weighed as M3, and the centrifuge tube after the removal of 30 µL homogenate was weighed as M4.
Standard curve range: 10-10,000 ng·mL^-1. Content of drug in brain = measured value × 0.03 × (M3−M1)/[(M2−M1)×(M3−M4)].

[6] = test system: LPS-induced mice; experiment: LPS-induced mouse model, survival; format: in vivo, Balb/c mice; details: for survival status of mice (mice alive) 12h / survival status of mice (mice alive) 24h / survival status of mice (mice alive) 36h / survival status of mice (mice alive) 48h / survival status of mice (mice alive) 72h: 25 mg/kg
[7] = PO, Balb/c mice, read-out: AUC(0-t)
[8] = PO, Balb/c mice, read-out: Cmax
[9] = PO, Balb/c mice, read-out: T1/2 (converted)
[10] = THP-1 cells, PMA, LPS 1 µg/mL 3 h, drug 40 min, Nigericin 10 µM 40 min, IL-1β ELISA, read-out: IC50
[11] = male, mouse, brain/plasma, po, 10 mg/kg
[12] = male, mouse, plasma, po, 10 mg/kg

Structure (SMILES)	AUC(0-t) [1, 7]	Cmax [1, 8]	half-life [1, 9]	pIC50 [2]	20 uM Inhibition ratio [4]	pIC50 [2, 10]	also measured
CCN1CCC[C@@H](Nc2nnc(-c3ccc4c(c3O)CCC4=C(F)F)n(C)c2=O)C1 [Compound 2, (R)-3-(1-(difluoromethylene)-4-hydroxy-2,3-dihydro-1H-inden-5-yl)-6-((1-ethylpiperidin-3-y 1)amino)-4-methyl-1,2,4-triazin-5(4H)-ketone]	15200 ng·h/mL	2690 ng/mL	2.82 h	8.31	–	–	–
Cn1c(-c2ccc3sccc3c2O)nnc(N[C@@H]2CCCN(C3CC(F)(F)C3)C2)c1=O [Compound 5, (R)-6-((1-(3,3-difluorocyclobutyl)piperidin-3-yl)amino)-3-(4-hydroxybenzo[b]thiophen-5-yl)-4-methyl-1,2,4-triazin-5(4H)-ketone]	–	–	–	–	19.97%	8.45	inhibitory effects on the hERG potassium ion channel (conclusion in words) ([3]; human): Conclusion: compounds 3, 4, 5, 9, 16, 17, 24, 30, 40, 41, 42, 43, 54 and others have weak inhibitory effects on the hERG potassium ion channel, having weaker inhibitory effect than the reference compound Ref-1.
[2H]C([2H])([2H])C([2H])([2H])N1CCC[C@@H](Nc2nnc(-c3ccc4sccc4c3O)n(C)c2=O)C1 [Compound 6, (R)-6-((1-(ethyl-d5)piperidin-3-yl)amino)-3-(4-hydroxybenzo[b]thiophen-5-yl)-4-methyl-1,2,4-triazin-5(4H)-ketone]	8300 ng·h/mL	1340 ng/mL	3.18 h	8.52	–	–	–
Cn1c(-c2ccc3sccc3c2O)nnc(N[C@@H]2CCCN(CC3CC3)C2)c1=O [Compound 8, (R)-6-((1-(cyclopropylmethyl)piperidin-3-yl)amino)-3-(4-hydroxybenzo[b]thiophen-5-yl)-4-methyl-1,2,4-triazin-5(4H)-ketone]	–	–	–	–	69.48%	8.72	–
CCN1CCC[C@@H](Nc2nnc(-c3ccc4sccc4c3O)n(CC)c2=O)C1 [Compound 12, (R)-4-ethyl-6-((1-ethylpiperidin-3-yl)amino)-3-(4-hydroxybenzo[b]thiophen-5-yl)-1,2,4-triazi n-5(4H)-ketone]	–	–	–	–	52.99%	8.14	AUC(0-t) ([1]; male, Balb/c, po): 12800 ng·h/mL; Cmax ([1]; male, Balb/c, po): 2740 ng/mL; half-life ([1]; male, Balb/c, po): 3.08 h; Brain ([5]; 1 h): 498 ng/g; Brain ([5]; 6 h): 215 ng/g; Kp at 1 h [5, 11]: 0.13; Kp at 6 h [5, 11]: 0.13; concentration at 1 h [5, 12]: 3840 ng/mL; concentration at 6 h [5, 12]: 1700 ng/mL
CN1CCC[C@@H](Nc2nnc(-c3ccc4c(c3O)CCC4=C(F)F)n(C)c2=O)C1 [Compound 13, (R)-3-(1-(difluoromethylene)-4-hydroxy-2,3-dihydro-1H-inden-5-yl)-4-methyl-6-((1-methylpiperidin-3-yl)amino)-1,2,4-triazin-5 (4H)-ketone]	98700 ng·h/mL	11400 ng/mL	5.47 h	8.87	–	–	–
Cn1c(-c2ccc3sccc3c2O)nnc(N[C@@H]2CCCN(C3CC3)C2)c1=O [Compound 16, (R)-6-((1-cyclopropylpiperidin-3-yl)amino)-3-(4-hydroxybenzo[b]thiophen-5-yl)-4-methyl-1,2,4-triazin-5(4H)-ketone]	–	–	–	–	35.63%	8.79	inhibitory effects on the hERG potassium ion channel (conclusion in words) ([3]; human): Conclusion: compounds 3, 4, 5, 9, 16, 17, 24, 30, 40, 41, 42, 43, 54 and others have weak inhibitory effects on the hERG potassium ion channel, having weaker inhibitory effect than the reference compound Ref-1.
C#Cc1ccc(-c2nnc(N[C@@H]3CCCN(C)C3)c(=O)n2C)c(O)c1 [Compound 24, (R)-3-(4-ethynyl-2-hydroxyphenyl)-4-methyl-6-((1-methylpiperidin-3-yl)amino)-1,2,4-triazin-5(4H)-ketone]	–	–	–	–	6.83%	7.92	inhibitory effects on the hERG potassium ion channel (conclusion in words) ([3]; human): Conclusion: compounds 3, 4, 5, 9, 16, 17, 24, 30, 40, 41, 42, 43, 54 and others have weak inhibitory effects on the hERG potassium ion channel, having weaker inhibitory effect than the reference compound Ref-1.
Cn1c(-c2ccc3sccc3c2O)nnc(N[C@@H]2CCCC[C@H]2O)c1=O [Compound 30, 3-(4-hydroxybenzo[b]thiophen-5-yl)-6-(((1R,2R)-2-hydroxycyclohexyl)amino)-4-methyl-1,2,4-triazin-5(4H)-ketone.]	–	–	–	–	1.70%	8.71	inhibitory effects on the hERG potassium ion channel (conclusion in words) ([3]; human): Conclusion: compounds 3, 4, 5, 9, 16, 17, 24, 30, 40, 41, 42, 43, 54 and others have weak inhibitory effects on the hERG potassium ion channel, having weaker inhibitory effect than the reference compound Ref-1.; AUC(0-t) ([1]; male, Balb/c, po): 4380 ng·h/mL; Cmax ([1]; male, Balb/c, po): 9810 ng/mL; half-life ([1]; male, Balb/c, po): 0.19 h
CC(C)N1CCC[C@@H](Nc2nnc(-c3ccc4sccc4c3O)n(C)c2=O)C1 [Compound 36]	3320 ng·h/mL	1510 ng/mL	1.24 h	8.81	–	–	–
COCCn1c(-c2ccc3sccc3c2O)nnc(N[C@@H]2CCCN(C)C2)c1=O [Compound 51, 3-(4-hydroxybenzo[b]thiophen-5-yl)-6-{[(3R)-1-methylpiperidin-3-yl]amino}-4-(2-methoxyethyl)-4H,5H-1,2,4-triazin-5-ketone]	9780 ng·h/mL	2940 ng/mL	2.39 h	6.74	–	–	–
CN1C[C@H](F)C[C@@H](Nc2nnc(-c3ccc4sc(F)cc4c3O)n(C)c2=O)C1 [Compound 52, 3-(2-fluoro-4-hydroxybenzo[b]thiophen-5-yl)-6-{[(3R,5R)-5-fluoro-1-methylpiperidin-3-yl]amino}-4-methyl-4H,5H-1,2,4-triazin-5-ketone]	21400 ng·h/mL	8570 ng/mL	3.16 h	8.30	–	–	–
CCN1C[C@H](F)C[C@@H](Nc2nnc(-c3ccc(C4CC4)cc3O)n(C)c2=O)C1 [Compound 53, 3-(4-cyclopropyl-2-hydroxyphenyl)-6-(((3R,5R)-1-ethyl-5-fluoropiperidin-3-yl)amino)-4-met hyl-1,2,4-triazin-5 (4H)-ketone]	1400 ng·h/mL	1420 ng/mL	3.85 h	7.73	–	–	–
CC(C)n1c(-c2ccc3sccc3c2O)nnc(N[C@@H]2CCCN(C)C2)c1=O [Compound 54, (R)-3-(4-hydroxybenzo[b]thiophen-5-yl)-4-isopropyl-6-((1-methylpiperidin-3-yl)amino)-1,2,4-triazin-5(4H)-ketone]	7470 ng·h/mL	1550 ng/mL	4.25 h	–	–	–	20 uM Inhibition ratio [3]: 7.77%; inhibitory effects on the hERG potassium ion channel (conclusion in words) [3]: Conclusion: compounds 3, 4, 5, 9, 16, 17, 24, 30, 40, 41, 42, 43, 54 and others have weak inhibitory effects on the hERG potassium ion channel, having weaker inhibitory effect than the reference compound Ref-1.
[2H]C([2H])([2H])n1c(-c2ccc3sccc3c2O)nnc(N[C@@H]2CCCN(CC)C2)c1=O [Compound 55, (R)-6-((1-ethylpiperidin-3-yl)amino)-3-(4-hydroxybenzo[b]thiophen-5-yl)-4-(methyl-d3)-1,2,4-triazin-5(4H)-ketone]	7450 ng·h/mL	1710 ng/mL	2.91 h	8.46	–	–	–
Cc1nc(N[C@@H]2CCCC[C@H]2O)nnc1-c1ccc(C(F)(F)F)cc1O [Ref-2, reference compound]	270 ng·h/mL	246 ng/mL	2.6 h	7.83	–	–	72h Survival rate ([6]; 25 mg/kg oral, 1 h before 10 mg/kg LPS i.p.): 50%; survival status of mice (mice alive) 12h ([6]; First cage (5 mice)): 5; survival status of mice (mice alive) 24h ([6]; First cage (5 mice)): 5; survival status of mice (mice alive) 36h ([6]; First cage (5 mice)): 4; survival status of mice (mice alive) 48h ([6]; First cage (5 mice)): 2; survival status of mice (mice alive) 72h ([6]; First cage (5 mice)): 2; survival status of mice (mice alive) 12h ([6]; Second cage (5 mice)): 5; survival status of mice (mice alive) 24h ([6]; Second cage (5 mice)): 4; survival status of mice (mice alive) 36h ([6]; Second cage (5 mice)): 4; survival status of mice (mice alive) 48h ([6]; Second cage (5 mice)): 3; survival status of mice (mice alive) 72h ([6]; Second cage (5 mice)): 3; Brain ([5]; 1 h): 168 ng/g; Plasma ([5]; 1 h): 264 ng/mL; Plasma ([5]; 6 h): 8.27 ng/mL; Kp at 1 h ([5]; mouse, brain, po, 10 mg/kg): 0.63; Kp at 6 h ([5]; mouse, brain, po, 10 mg/kg): 0.17
CN1CCC[C@@H](Nc2nnc(-c3ccc(C(F)(F)F)cc3O)n(C)c2=O)C1 [Ref-3, reference compound]	1820 ng·h/mL	1140 ng/mL	0.87 h	–	–	8.19	–

Source: patent EP4685142A1, “TRIAZINE COMPOUND AND USE THEREOF” (Chengdu Zenitar Biomedical Technology Co., Ltd., priority 2023, dated 2024)
